SMILES strings stand for the structures. Entries after “also recorded” stand apart in the source; their conditions may differ. Read-outs that look alike come from different tables or passages of the source. Marks after values point to notes of the source that are not given here.

A word on the EC50: it is the midpoint of the concentration-response curve. As usually defined, the melting point is the temperature, or range, at which the solid turns liquid.

On the set-up of data set [1]: method as in guideline OPPTS 830.7570 (EPA). The note with it: reference substances for calibration; log P values; ref guideline OPPTS 830.7570 (EPA); cited from earlier work.
Data set [2] is described as follows: log D7.4 estimation by HPLC-based method. It counts as physicochemical. Here is the method: The log D7.4 values were estimated using a common HPLC-based method in accordance with guideline OPPTS 830.7570 of the United States Environmental Protection Agency (EPA). The HPLC measurements were performed with a Phenomenex Luna 5 μm Phenyl-Hexyl 100 Å column (150 × 4.6 mm). […]. Uracil was used to measure the unretained peak time. To obtain a calibration function, the logarithm of the capacity factors for the reference substances was then plotted against the corresponding log P values taken from the mentioned guideline, which are equivalent to the log D7.4 values for non-ionizable compounds like the reference substances used for calibration. With this calibration function, it was possible to estimate the log D7.4 value from the corresponding retention time for each compound to be tested. For the measurement, 2 mg of the reference substances was each dissolved in 1 mL of methanol. A reference mixture was then obtained by combining 50 μL of each reference solution. The reference mixture was measured before and after the substances to be tested. The mean value from both measurements was used for the calibration line. The substances to be tested were injected as a solution in methanol (2 mg/mL), and the retention time was determined as the mean value from two measurements.

In data set [3] the target is T1, KV7.2/3 channel (Homo sapiens, UniProt O43525+O43526). The note with it: cited from earlier work.
The test system of data set [4] is TAMH cells. The note with it: MTT assay, 24 h exposure; cited from earlier work. In general terms: Formazan colour is commonly taken as a measure of viable cells.
The subject of data set [5] is HEP-G2 cells. The note with it: MTT assay, 24 h exposure; cited from earlier work.
The target of data set [6] is T1, KV7.2/3 channel. The data set can be described thus: KV7.2/3 channel opening assay (thallium-sensitive fluorescence). In kind it is cell-based. The note with it: for EC50 / efficacy: HEK293 cells overexpressing KV7.2/3; for efficacy: relative to maximum signal of flupirtine (=100%); for potency relative to flupirtine: KV7.2/3 opening, EC50 compared with flupirtine; for KV7.2/3 channel opening activity (in words): inactive = no channel opening activity detected up to a concentration of 10 μM. The procedure: To evaluate the biological activity, the synthesized analogues were tested on HEK293 cells overexpressing the KV7.2/3 channel. The measurement was carried out in a fluorescence-based assay in which a thallium-sensitive dye generated the fluorescence signal. Due to its similarity to potassium, thallium can also pass through KV7 channels. The intensity of the fluorescence signal correlates with the amount of intracellular thallium and thus with the ability of the compounds to open KV7 channels. To determine the potency, the fluorescence intensity was measured as a function of the compound concentration. The efficacy was determined relative to the maximum fluorescence signal induced by flupirtine. For a summary of the activity data, see Table 2.
The cell culture of the KV7.2/3 transfected HEK293 cells (HEK293 KCNQ2/3 cells from SB Drug Discovery, Glasgow, UK) used for the assay and the processing of the obtained data were performed as described in earlier work.[27],[29] Briefly, 60,000 cells/well were seeded into 96-well microtiter plates for fluorescence-based assays (4titude Vision Plate Black 96-Well microtiter plates from ThermoScientic) and incubated for 24 h. After incubation, the medium was changed to 200 μL/well loading buffer containing 5 mmol/L probenecid and incubated for 1 h at room temperature. Subsequently, the test compounds dissolved in DMSO were added to the wells to the desired concentrations and further incubated for 30 min. As a control, the loading buffer with a DMSO concentration corresponding to the substance samples (1% (V/V)) was used. Fluorescence measurements were performed on the Infinite F200 Pro plate reader (Tecan) set at […]/emission wavelengths of 485 and 535 nm, respectively. After measuring the background fluorescence (baseline) for 20 s, a stimulus buffer (25 mmol/L K^+, 15 mmol/L Tl^+) was added just before the fluorescence of each well was measured.
The calculations to obtain dose–response curves were performed in the same manner as in previous investigations.[27],[29] Briefly, the fluorescence intensity was normalized with the baseline signal (F/F0) at each time of signal acquisition. To obtain the corrected negative control, a value of 1 was subtracted from the normalized value of the negative control. Subsequently, the value of the corrected negative control was subtracted from the maximum (corr. F/F0) value of a compound in a defined concentration (corr. ΔF/F0) and then plotted against the logarithmic concentration. The EC50 value was calculated as relative values with GraphPad Prism 6 (La Jolla, CA, USA), that is, the inflection points of the sigmoidal curves. The Emax value, the maximum response, indicates the intrinsic activity of a compound. This value was determined relative to flupirtine (1), where the maximum corr. ΔF/F0 value of flupirtine (1) was defined as 100%. The EC50 and Emax value of a compound is the mean of at least three independent experiments ± standard deviation (SD).

Data set [7] relates to TAMH cells. As to the kind of experiment: MTT cell viability assay, TAMH cells. The note with it: for LD50: 50% reduction of viability. From the text:
(§1) In addition to the activity, basic toxicological properties of the newly synthesized compounds were also investigated by using the 3-(4,5-dimethylthiazol-2-yl)-2,5-diphenyltetrazolium bromide (MTT) cell viability assay on mouse TAMH and human HEP-G2 hepatic cell lines (see Table 2). Both cell lines are established for the evaluation of hepatotoxicity.[42],[43]
(§2) The culturing of the mouse liver TAMH and human liver cancer HEP-G2 cell lines and the MTT assay used to evaluate cell viability were carried out as previously described elsewhere in detail.[27],[29] […] The medium in the wells was then replaced with the medium containing the compounds. Control wells contained an equivalent number of cells and 1% (v/v) DMSO. Wells without cells were used to determine the background optical density (OD) and were treated as the control wells. After 24 or 48 h of incubation with the compound, the respective medium was replaced with a fresh medium supplemented with 10% (v/v) of a 2.5 mg/mL solution of MTT. The plates were incubated for 4 h. Then, the culture medium was carefully aspirated off and 50 μL of DMSO was added to each well to dissolve the formazan crystals. The ODs of each well were measured at λ = 570 nm with a SpectraMax 190 microplate reader.
(§3) The calculated T/Ccorr. values were plotted against the log(concentration). The LD50 and LD25 values were determined by using GraphPad Prism 6. […] The values are given as the mean with SD of at least three independent experiments.

Data set [8] deals with HEP-G2 cells. As to the kind of experiment: MTT cell viability assay, HEP-G2 cells. The note with it: for LD50: 50% reduction of viability.
From the text: as §1, §2, §3

The nature of data set [9]: Maximum concentration without precipitation in MTT assay buffer. In kind it is physicochemical.
From the text: A limitation in the in vitro toxicity testing was the occasional poor water solubility of the analogues.
Setting [10] is: concentration for half-maximal channel opening, mean ± SD, ≥3 determinations.
[11] abbreviates: TAMH cells, MTT assay, 24 h exposure.
[12] abbreviates: HEP-G2 cells, MTT assay, 24 h exposure.
[13] abbreviates: HPLC, Phenomenex Luna 5 μm Phenyl-Hexyl column, pH 7.4, HPLC, calibration A1, read-out: logD7.4.
Setting [14] is: HPLC, Phenomenex Luna 5 μm Phenyl-Hexyl column, pH 7.4, HPLC, calibration B1, read-out: logD7.4.
Setting [15] is: HPLC, Phenomenex Luna 5 μm Phenyl-Hexyl column, pH 7.4, HPLC, mean of two calibrations, read-out: logD7.4 (mean).
Setting [16] is: HPLC, Phenomenex Luna 5 μm Phenyl-Hexyl column, pH 7.4, estimated by HPLC-based method, pH 7.4, read-out: log D7.4.
[17] abbreviates: TAMH cells, MTT assay, 24 h exposure, 25% reduction of viability.
Setting [18] is: HEP-G2 cells, MTT assay, 24 h exposure, 25% reduction of viability.

T1 sequence (O43526 whole entry): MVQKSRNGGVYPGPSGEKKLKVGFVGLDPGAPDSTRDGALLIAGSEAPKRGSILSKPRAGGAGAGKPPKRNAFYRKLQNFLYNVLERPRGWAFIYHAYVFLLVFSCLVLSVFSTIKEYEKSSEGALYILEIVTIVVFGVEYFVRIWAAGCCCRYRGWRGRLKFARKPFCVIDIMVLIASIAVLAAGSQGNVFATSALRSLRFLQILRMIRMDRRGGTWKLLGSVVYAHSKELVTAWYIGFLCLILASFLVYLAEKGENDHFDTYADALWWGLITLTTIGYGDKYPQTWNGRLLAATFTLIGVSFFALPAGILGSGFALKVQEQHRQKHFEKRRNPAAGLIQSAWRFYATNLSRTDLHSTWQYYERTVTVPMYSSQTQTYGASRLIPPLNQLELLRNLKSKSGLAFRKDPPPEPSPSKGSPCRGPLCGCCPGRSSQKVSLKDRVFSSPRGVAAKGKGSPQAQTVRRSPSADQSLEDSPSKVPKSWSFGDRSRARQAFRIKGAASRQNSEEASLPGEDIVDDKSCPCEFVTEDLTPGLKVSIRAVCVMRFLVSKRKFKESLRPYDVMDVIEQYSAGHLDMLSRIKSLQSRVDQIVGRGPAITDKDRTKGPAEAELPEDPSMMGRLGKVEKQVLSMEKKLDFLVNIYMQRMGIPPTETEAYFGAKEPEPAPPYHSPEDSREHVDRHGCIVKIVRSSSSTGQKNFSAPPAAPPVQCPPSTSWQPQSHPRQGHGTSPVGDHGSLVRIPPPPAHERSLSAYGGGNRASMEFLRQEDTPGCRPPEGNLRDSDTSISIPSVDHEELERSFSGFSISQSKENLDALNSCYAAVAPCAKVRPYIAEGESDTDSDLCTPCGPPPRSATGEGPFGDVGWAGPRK
T1 sequence (O43525 whole entry): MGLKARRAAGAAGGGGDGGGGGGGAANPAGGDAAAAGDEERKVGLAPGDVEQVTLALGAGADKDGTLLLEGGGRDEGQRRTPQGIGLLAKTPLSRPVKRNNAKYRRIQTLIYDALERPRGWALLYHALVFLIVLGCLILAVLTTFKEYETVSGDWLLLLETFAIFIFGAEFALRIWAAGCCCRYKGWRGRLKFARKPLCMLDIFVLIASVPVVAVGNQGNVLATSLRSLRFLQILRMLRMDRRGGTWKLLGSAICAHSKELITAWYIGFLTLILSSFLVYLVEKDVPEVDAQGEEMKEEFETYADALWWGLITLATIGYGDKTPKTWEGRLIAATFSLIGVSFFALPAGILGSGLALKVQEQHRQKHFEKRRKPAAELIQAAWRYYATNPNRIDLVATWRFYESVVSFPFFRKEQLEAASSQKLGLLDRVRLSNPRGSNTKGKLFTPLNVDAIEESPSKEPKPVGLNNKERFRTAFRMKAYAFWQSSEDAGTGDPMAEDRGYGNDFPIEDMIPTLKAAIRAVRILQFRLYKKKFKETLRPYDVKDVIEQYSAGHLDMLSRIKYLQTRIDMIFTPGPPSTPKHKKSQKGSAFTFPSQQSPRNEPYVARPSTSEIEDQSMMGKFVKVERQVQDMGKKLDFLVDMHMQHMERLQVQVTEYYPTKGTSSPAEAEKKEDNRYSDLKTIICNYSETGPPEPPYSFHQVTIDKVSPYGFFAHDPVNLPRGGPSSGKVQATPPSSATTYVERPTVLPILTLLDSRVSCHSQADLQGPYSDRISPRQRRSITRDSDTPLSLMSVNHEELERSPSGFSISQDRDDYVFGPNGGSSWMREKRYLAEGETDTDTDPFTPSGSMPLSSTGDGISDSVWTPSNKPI

`c1ccc(N(c2ccccc2)c2ccccc2)cc1` [Triphenylamine]: in data set [1], the “logD (Lit.)” value was 5.7.
With `CCOC(=O)Nc1ccc(NCc2ccc(F)cc2)cc1N` [compound 2, retigabine], the chromatographic logD is 2.05 in data set [2] (pH 7.4, HPLC, calibration C, read-out: logD7.4); 2.06 in [2] (pH 7.4, HPLC, calibration D, read-out: logD7.4); 2.1 in data set [2] (pH 7.4, HPLC, mean of two calibrations, read-out: logD7.4 (mean)); 2.1 in data set [2] (pH 7.4, estimated by HPLC-based method, pH 7.4, read-out: log D7.4). The EC50 at KV7.2/3 channel [3] (HEK293 cells overexpressing KV7.2/3, mean ± SD) is 147 ± 12 nM. The efficacy at KV7.2/3 channel [3] (HEK293 cells overexpressing KV7.2/3, relative to flupirtine) is 134 ± 16 ^f %. Further, the LD50 in the data set with TAMH cells [4] and in the data set with HEP-G2 cells [5] was >400 ^f μM in each case. For the same compound, the LD25 in the data set with HEP-G2 cells [5] is on record as 269 ± 166 ^f μM.
With `CCOC(=O)Nc1ccc(NCc2ccc(F)cc2)nc1N` [compound 1, flupirtine, reference compound], the EC50 at KV7.2/3 channel [6] (setting [10]) came out at 1840 ± 844 nM. Moreover, the efficacy on KV7.2/3 channel [6] is on record as 100%. In addition, the LD50 is 487 ± 51 µM with TAMH cells [7] (setting [11]); about 500 µM in the data set on TAMH cells [7] (TAMH cells, MTT assay, 24 h exposure, listed as flupirtine); 547 ± 111 µM in the data set with HEP-G2 cells [8] (setting [12]); about 500 µM with HEP-G2 cells [8] (HEP-G2 cells, MTT assay, 24 h exposure, listed as flupirtine). The LD25 in the data set with TAMH cells [7] (mouse, 24 h) stood at 103 ± 47 µM; with HEP-G2 cells [8] (human, 24 h) it was 74 ± 40 µM. Also, the chromatographic logD is 2.1 in data set [2] (setting [13]), 2.06 in data set [2] (setting [14]), 2.1 in data set [2] (setting [15]) and 2.1 in [2] (setting [16]).
Consider `COc1nc(NCc2ccc(F)cc2)cc(C)c1C(=O)NCc1ccc(F)cc1` [36b, N-(4-Fluorobenzyl)-6-[(4-fluorobenzyl)amino]-2-methoxy-4-methylnicotinamide], for which the midpoint of the response at KV7.2/3 channel [6] (setting [10]), the EC50, lay at 310 nM. For the same compound, at KV7.2/3 channel [6], the efficacy is reported as 105 ± 12%. For the same compound, the “potency relative to flupirtine” value at KV7.2/3 channel [6] is given as “about six times more potent than flupirtine; also recorded: six times as potent as flupirtine”; on KV7.2/3 channel [6] (listed as N-(4-fluorobenzyl)-6-[(4-fluorobenzyl)amino]-2-methoxy-4-methylnicotinamide) it was “six times as active as flupirtine”. Moreover, the LD25 in the data set on TAMH cells [7] (setting [17]) is over 63 µM; in the data set on HEP-G2 cells [8] (setting [18]) it was over 16 µM. The LD50 was over 63 µM with TAMH cells [7] (setting [11]) and over 16 µM in the data set with HEP-G2 cells [8] (setting [12]). The chromatographic logD was 4.13 in data set [2] (setting [13]), 4.09 in [2] (setting [14]), 4.1 in [2] (setting [15]) and 4.1 in data set [2] (setting [16]). The “maximum concentration achieved without precipitating” value in data set [9] came out at 63 µM.
Compound `Cc1cc(NCc2ccc(F)cc2)[nH]c(=O)c1C(=O)NCc1ccc(F)cc1` [compound 37, N-(4-Fluorobenzyl)-6-[(4-fluorobenzyl)amino]-4-methyl-2-oxo-1,2-dihydropyridine-3-carboxamide] had a melting point of 196 °C.
For `O=C(Cc1cc(F)cc(F)c1)Nc1ccc(N2CCOCC2)nc1N1CCOCC1` [compound 49], the EC50 on KV7.2/3 channel [3] (KV7.2/3, lead structure from previous work, read-out: EC50) was 11 nM.
Regarding `Cc1cc(N2CCOCC2)nc(N)c1CNC(=O)Cc1cc(F)cc(F)c1` [compound 61, N-[(2-Amino-4-methyl-6-morpholinopyridin-3-yl)methyl]-2-(3,5-difluorophenyl)acetamide], the EC50 on KV7.2/3 channel [6] (footnote e) is over 10000 nM. Also, at KV7.2/3 channel [6], the “KV7.2/3 channel opening activity (in words)” value was “inactive”. Moreover, the LD25 in the data set on TAMH cells [7] (setting [17]) and in the data set on HEP-G2 cells [8] (setting [18]) was over 63 µM in each case. For the same compound, the LD50 in the data set on TAMH cells [7] (setting [11]) and in the data set with HEP-G2 cells [8] (setting [12]) was over 63 µM throughout. Besides, the chromatographic logD is 2.57 in [2] (setting [13]), 2.58 in [2] (setting [14]), 2.6 in [2] (setting [15]) and 2.6 in data set [2] (setting [16]).
Compound `Cc1cc(N2CCOCC2)nc(N2CCOCC2)c1CNC(=O)c1ccc(F)cc1` [55a, 4-Fluoro-N-[(4-methyl-2,6-dimorpholinopyridin-3-yl)methyl]benzamide] came in with an EC50 at KV7.2/3 channel [6] (footnote e) of over 10000 nM. For the same compound, the “KV7.2/3 channel opening activity (in words)” value on KV7.2/3 channel [6] is “inactive”. The results for the LD25 in the data set with TAMH cells [7] (setting [17]) and in the data set with HEP-G2 cells [8] (setting [18]) were 22 ± 7 µM and 22 ± 6 µM, respectively. Besides, the LD50 in the data set on TAMH cells [7] (setting [11]) and in the data set with HEP-G2 cells [8] (setting [12]) was over 31 µM in each case. Also, the chromatographic logD in [2] (setting [13]) was 3.45; in [2] (setting [14]) it was 3.46; in data set [2] (setting [15]) it was 3.5; in data set [2] (setting [16]), 3.5.

The record behind these values is paper PMC8908504 (ACS Omega, 2022).
